Reference: PMC5814754, “Quantitative, Wide-Spectrum Kinase Profiling in Live Cells for Assessing the Effect of Cellular ATP on Target Engagement” (Cell Chemical Biology, 2018)
Like-named read-outs stand apart in the source and are kept apart here.

How the values were obtained:
[1] = target: full-length kinase/Nluc fusion proteins (Homo sapiens, UniProt P41240); experiment: Apparent affinity (EC50) of energy transfer probes by titration onto live HEK293 cells expressing kinase/Nluc fusions (Table S1); assay type: binding; settings: CSK, Nluc C; read-out: Probe EC50
[2] = target: full-length kinase/Nluc fusion proteins (Homo sapiens, UniProt P29317); experiment: as above; assay type: binding; settings: EPHA2, Nluc C; read-out: Probe EC50
[3] = target: full-length kinase/Nluc fusion proteins (Homo sapiens, UniProt P09769); experiment: as above; assay type: binding; settings: FGR, Nluc N; read-out: Probe EC50
[4] = target: full-length kinase/Nluc fusion proteins (Homo sapiens, UniProt P00519); experiment: as above; assay type: binding; settings: ABL1, Nluc N; read-out: Probe EC50
[5] = target: full-length kinase/Nluc fusion proteins (Homo sapiens, UniProt P57059); experiment: as above; assay type: binding; settings: SIK1 (NP_001307572), Nluc orientation N; read-out: Probe EC50
[6] = target: full-length kinase/Nluc fusion proteins (Homo sapiens, UniProt Q9Y2K2); experiment: as above; assay type: binding; settings: SIK3 (NP_079440), Nluc orientation N; read-out: Probe EC50
[7] = target: full-length kinase/Nluc fusion proteins (Homo sapiens, UniProt P21802); experiment: as above; assay type: binding; settings: FGFR2, Nluc C; read-out: Probe EC50
[8] = target: full-length kinase/Nluc fusion proteins (Homo sapiens, UniProt Q9NY57); experiment: as above; assay type: binding; settings: STK32B (NP_060871), Nluc orientation N; read-out: Probe EC50
[9] = target: full-length kinase/Nluc fusion proteins (Homo sapiens, UniProt Q8WU08); experiment: as above; assay type: binding; settings: STK32A (NP_001106195), Nluc orientation N; read-out: Probe EC50
[10] = target: full-length kinase/Nluc fusion proteins (Homo sapiens, UniProt Q9NRM7); experiment: as above; assay type: binding; settings: LATS2, Nluc C; read-out: Probe EC50
[11] = target: full-length kinase/Nluc fusion proteins (Homo sapiens, UniProt P52333); experiment: as above; assay type: binding; settings: JAK3, Nluc C; read-out: Probe EC50
[12] = target: full-length kinase/Nluc fusion proteins (Homo sapiens, UniProt Q06187); experiment: as above; assay type: binding; settings: BTK, Nluc C; read-out: Probe EC50
[13] = target: full-length kinase/Nluc fusion proteins (Homo sapiens, UniProt P17612); experiment: as above; assay type: binding; settings: PRKACA, Nluc C; read-out: Probe EC50
[14] = target: full-length kinase/Nluc fusion proteins (Homo sapiens, UniProt Q9Y4K4); experiment: as above; assay type: binding; settings: MAP4K5, Nluc C; read-out: Probe EC50
[15] = target: full-length kinase/Nluc fusion proteins (Homo sapiens, UniProt Q9Y463); experiment: as above; assay type: binding; settings: DYRK1B, Nluc N; read-out: Probe EC50
[16] = target: full-length kinase/Nluc fusion proteins (Homo sapiens, UniProt P45983); experiment: as above; assay type: binding; settings: read-out: Probe EC50
[17] = target: full-length kinase/Nluc fusion proteins (Homo sapiens, UniProt O15146); experiment: as above; assay type: binding; settings: MUSK, Nluc C; read-out: Probe EC50
[18] = target: full-length kinase/Nluc fusion proteins (Homo sapiens, UniProt Q9NYY3); experiment: as above; assay type: binding; settings: PLK2, Nluc N; read-out: Probe EC50
[19] = target: full-length kinase/Nluc fusion proteins (Homo sapiens, UniProt Q2M2I8); experiment: as above; assay type: binding; settings: AAK1, Nluc N; read-out: Probe EC50
[20] = target: full-length kinase/Nluc fusion proteins (Homo sapiens, UniProt O43283); experiment: as above; assay type: binding; settings: MAP3K13, Nluc N; read-out: Probe EC50
[21] = target: full-length kinase/Nluc fusion proteins (Homo sapiens, UniProt Q9UF33); experiment: as above; assay type: binding; settings: EPHA6, Nluc C; read-out: Probe EC50
[22] = target: full-length kinase/Nluc fusion proteins (Homo sapiens, UniProt Q96L34); experiment: as above; assay type: binding; settings: MARK4, Nluc N; read-out: Probe EC50
[23] = target: full-length kinase/Nluc fusion proteins (Homo sapiens, UniProt P30530); experiment: as above; assay type: binding; settings: AXL, Nluc C; read-out: Probe EC50
[24] = target: full-length kinase/Nluc fusion proteins (Homo sapiens, UniProt O76039); experiment: as above; assay type: binding; settings: CDKL5, Nluc N; read-out: Probe EC50
ABL [25] = settings: read-out: Live Cell IC50 Phospho Elisa; ref Cui et al., 2011; cited from earlier work
ABL [26] = settings: read-out: Crizotinib IC50 Biochemical; ref Cui et al., 2011; cited from earlier work
LCK = settings: read-out: Crizotinib IC50 Biochemical; ref Cui et al., 2011; cited from earlier work

Chain of full-length kinase/Nluc fusion proteins (Homo sapiens, UniProt P45983) (P45983 whole entry, the tested form may be a part): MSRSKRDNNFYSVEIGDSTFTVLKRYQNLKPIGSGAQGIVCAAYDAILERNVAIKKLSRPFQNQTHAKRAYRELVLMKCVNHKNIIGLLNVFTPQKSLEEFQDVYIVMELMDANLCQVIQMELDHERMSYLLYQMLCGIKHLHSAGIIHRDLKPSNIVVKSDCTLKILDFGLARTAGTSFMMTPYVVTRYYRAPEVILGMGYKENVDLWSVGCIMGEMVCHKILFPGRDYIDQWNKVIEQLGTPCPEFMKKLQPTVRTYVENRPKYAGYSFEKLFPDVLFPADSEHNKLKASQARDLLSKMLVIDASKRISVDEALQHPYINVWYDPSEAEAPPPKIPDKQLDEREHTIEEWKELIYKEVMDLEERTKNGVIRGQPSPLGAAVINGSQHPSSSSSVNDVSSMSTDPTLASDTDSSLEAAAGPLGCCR
Chain of full-length kinase/Nluc fusion proteins (Homo sapiens, UniProt O43283) (O43283 whole entry, the tested form may be a part): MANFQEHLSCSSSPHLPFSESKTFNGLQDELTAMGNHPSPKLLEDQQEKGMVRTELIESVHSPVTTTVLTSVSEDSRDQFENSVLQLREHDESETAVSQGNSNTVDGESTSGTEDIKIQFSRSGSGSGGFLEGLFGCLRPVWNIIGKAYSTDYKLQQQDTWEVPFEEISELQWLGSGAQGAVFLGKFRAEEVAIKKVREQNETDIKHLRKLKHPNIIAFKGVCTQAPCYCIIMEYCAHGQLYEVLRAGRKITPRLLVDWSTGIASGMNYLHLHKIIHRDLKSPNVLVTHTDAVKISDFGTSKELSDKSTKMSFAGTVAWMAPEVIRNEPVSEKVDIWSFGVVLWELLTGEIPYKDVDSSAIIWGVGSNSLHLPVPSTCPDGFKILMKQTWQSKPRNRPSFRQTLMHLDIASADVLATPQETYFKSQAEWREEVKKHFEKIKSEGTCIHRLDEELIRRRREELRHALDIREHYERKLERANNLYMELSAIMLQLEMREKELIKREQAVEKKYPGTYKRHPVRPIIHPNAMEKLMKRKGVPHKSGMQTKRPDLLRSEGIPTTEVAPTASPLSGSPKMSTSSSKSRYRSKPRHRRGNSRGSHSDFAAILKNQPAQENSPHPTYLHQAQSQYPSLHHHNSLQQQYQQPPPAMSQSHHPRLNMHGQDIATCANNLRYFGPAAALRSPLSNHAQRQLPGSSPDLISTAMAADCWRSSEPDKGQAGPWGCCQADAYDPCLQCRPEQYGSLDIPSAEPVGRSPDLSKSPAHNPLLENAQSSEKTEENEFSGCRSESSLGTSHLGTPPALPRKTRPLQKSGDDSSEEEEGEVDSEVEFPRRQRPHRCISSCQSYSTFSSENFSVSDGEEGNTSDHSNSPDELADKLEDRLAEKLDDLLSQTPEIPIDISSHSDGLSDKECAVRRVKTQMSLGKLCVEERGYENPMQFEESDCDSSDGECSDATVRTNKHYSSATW
Chain of full-length kinase/Nluc fusion proteins (Homo sapiens, UniProt Q9UF33) (Q9UF33 23-1036): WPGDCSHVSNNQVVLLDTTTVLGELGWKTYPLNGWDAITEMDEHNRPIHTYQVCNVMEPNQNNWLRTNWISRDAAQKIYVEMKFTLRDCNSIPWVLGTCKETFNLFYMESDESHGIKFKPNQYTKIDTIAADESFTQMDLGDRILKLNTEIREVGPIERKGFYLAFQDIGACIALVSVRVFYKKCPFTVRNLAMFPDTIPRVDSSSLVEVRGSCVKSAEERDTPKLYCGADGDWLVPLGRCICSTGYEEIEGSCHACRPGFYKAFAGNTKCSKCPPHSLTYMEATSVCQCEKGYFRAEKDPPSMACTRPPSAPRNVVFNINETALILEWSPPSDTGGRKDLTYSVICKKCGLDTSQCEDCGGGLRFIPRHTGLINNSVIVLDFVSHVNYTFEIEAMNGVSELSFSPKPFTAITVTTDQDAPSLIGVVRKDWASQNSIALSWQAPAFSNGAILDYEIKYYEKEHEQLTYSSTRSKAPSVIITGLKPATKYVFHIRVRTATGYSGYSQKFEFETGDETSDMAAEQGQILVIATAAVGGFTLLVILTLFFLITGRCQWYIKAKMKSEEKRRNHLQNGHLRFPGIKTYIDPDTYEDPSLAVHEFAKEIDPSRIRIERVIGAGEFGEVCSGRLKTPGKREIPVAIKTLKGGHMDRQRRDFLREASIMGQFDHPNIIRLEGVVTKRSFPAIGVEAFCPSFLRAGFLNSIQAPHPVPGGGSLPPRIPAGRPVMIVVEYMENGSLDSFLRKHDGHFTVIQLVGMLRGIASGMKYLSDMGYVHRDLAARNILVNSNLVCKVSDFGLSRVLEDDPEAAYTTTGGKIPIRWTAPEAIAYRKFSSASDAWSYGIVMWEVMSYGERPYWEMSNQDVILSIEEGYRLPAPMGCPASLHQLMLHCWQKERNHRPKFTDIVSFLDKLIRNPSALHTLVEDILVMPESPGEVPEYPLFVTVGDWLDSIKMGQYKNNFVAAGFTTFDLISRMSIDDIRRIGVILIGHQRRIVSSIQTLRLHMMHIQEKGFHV
Chain of full-length kinase/Nluc fusion proteins (Homo sapiens, UniProt P52333) (P52333 whole entry, the tested form may be a part): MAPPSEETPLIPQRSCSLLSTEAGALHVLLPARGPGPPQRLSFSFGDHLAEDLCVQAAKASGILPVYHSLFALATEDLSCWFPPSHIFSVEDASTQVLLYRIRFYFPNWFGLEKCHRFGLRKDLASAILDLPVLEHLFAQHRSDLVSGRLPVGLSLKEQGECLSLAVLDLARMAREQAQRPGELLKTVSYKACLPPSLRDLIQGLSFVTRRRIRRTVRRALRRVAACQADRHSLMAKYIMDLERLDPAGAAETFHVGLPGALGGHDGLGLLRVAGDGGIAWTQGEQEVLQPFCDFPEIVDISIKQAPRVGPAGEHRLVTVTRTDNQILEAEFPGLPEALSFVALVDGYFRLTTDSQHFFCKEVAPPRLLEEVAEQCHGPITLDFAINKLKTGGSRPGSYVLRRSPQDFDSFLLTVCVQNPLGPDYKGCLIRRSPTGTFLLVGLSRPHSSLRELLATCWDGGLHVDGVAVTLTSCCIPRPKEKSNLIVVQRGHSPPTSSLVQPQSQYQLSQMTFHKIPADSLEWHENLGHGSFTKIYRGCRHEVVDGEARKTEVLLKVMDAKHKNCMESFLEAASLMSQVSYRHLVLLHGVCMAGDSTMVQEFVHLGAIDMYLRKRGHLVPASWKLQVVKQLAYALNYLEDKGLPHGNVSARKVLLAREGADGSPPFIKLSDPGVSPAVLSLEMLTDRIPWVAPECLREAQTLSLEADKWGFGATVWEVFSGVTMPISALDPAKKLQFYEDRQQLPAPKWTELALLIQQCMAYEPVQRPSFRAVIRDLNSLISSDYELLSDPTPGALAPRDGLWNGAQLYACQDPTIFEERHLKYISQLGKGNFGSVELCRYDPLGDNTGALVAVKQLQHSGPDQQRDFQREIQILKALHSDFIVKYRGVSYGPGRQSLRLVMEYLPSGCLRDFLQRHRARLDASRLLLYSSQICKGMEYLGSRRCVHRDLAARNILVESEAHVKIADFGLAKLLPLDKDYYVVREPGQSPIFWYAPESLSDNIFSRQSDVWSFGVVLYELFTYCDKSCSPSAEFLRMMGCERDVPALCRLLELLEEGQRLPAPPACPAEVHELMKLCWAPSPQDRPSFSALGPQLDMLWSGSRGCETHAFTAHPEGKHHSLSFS
Chain of full-length kinase/Nluc fusion proteins (Homo sapiens, UniProt Q2M2I8) (Q2M2I8 whole entry, the tested form may be a part): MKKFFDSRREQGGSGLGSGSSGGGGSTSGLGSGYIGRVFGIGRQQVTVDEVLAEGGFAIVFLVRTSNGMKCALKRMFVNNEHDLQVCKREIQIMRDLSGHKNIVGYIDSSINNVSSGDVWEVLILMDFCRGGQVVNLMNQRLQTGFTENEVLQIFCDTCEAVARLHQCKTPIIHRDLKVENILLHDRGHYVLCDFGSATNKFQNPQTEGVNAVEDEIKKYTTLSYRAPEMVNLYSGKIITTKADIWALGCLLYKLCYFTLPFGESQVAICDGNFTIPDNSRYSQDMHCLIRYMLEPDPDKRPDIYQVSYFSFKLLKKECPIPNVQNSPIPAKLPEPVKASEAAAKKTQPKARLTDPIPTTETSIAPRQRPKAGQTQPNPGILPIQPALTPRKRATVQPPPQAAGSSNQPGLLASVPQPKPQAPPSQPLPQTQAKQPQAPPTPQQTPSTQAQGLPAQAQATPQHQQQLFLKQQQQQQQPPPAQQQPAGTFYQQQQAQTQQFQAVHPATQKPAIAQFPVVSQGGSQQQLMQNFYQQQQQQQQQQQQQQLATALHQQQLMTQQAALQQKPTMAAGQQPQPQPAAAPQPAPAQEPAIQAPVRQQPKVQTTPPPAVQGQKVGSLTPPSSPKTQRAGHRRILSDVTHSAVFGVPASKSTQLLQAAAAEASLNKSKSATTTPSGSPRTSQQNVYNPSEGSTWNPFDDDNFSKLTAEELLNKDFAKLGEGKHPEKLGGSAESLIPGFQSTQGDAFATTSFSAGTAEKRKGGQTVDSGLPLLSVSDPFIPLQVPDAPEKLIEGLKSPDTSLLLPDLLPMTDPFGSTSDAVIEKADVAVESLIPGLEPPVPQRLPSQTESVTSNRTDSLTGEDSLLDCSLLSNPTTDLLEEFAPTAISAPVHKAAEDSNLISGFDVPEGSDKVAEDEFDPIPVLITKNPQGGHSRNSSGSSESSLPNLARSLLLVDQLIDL
Chain of full-length kinase/Nluc fusion proteins (Homo sapiens, UniProt Q8WU08) (Q8WU08 whole entry, the tested form may be a part): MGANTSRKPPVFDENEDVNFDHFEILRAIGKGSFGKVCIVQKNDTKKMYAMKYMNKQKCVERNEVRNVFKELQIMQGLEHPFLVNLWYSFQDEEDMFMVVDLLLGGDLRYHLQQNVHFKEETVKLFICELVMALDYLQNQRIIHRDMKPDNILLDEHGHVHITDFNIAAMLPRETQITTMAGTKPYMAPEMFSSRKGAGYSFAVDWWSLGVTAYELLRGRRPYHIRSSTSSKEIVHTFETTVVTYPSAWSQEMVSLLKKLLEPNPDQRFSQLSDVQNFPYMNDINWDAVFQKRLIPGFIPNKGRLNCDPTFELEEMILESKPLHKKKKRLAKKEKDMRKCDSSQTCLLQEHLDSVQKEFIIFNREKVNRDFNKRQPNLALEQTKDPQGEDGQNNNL

## Cc1nc(Nc2ncc(C(=O)Nc3c(C)cccc3Cl)s2)cc(N2CCN(CCOCCNC(=O)CCc3ccc4n3[B-](F)(F)[N+]3=C(c5ccc[nH]5)C=CC3=C4)CC2)n1 [Energy Transfer Probe 6, 2-((6-(4-(2-(2-aminoethoxy)ethyl)piperazin-1-yl)-2-methylpyrimidin-4-yl)amino)-N-(2-chloro-6-methylphenyl)thiazole-5-carboxamide-NanoBRET 590]
[1]
  EC50: > 1000 nM
[2]
  EC50: 60 nM
[3]
  EC50: 700 nM
[4]
  EC50: 200 nM
[5]
  EC50: 100 nM
[6]
  EC50: > 1000 nM

## CNC(=O)c1ccccc1Nc1nc(Nc2ccc(N3CCN(C(=O)CCOCCOCCOCCOCCNC(=O)CCc4ccc5n4[B-](F)(F)[N+]4=C(c6ccc[nH]6)C=CC4=C5)CC3)cc2)ncc1Cl [Energy Transfer Probe 5, 2-((2-((4-(4-(1-amino-3,6,9,12-tetraoxapentadecan-15-oyl)piperazin-1-yl)phenyl)amino)-5-chloropyrimidin-4-yl)amino)-N-methylbenzamide-NanoBRET 590]
[7]
  EC50: 600 nM
[8]
  EC50: 600 nM
[9]
  EC50: > 1000 nM
[10]
  EC50: 300 nM
[11]
  EC50: > 1000 nM
[12]
  EC50: 600 nM
[13]
  EC50: > 1000 nM
[14]
  EC50: > 1000 nM
[15]
  EC50: > 1000 nM
[16]; JNK1, Nluc N
  EC50: > 1000 nM
[16]; MAPK8, Nluc N
  EC50: 300 nM
[17]
  EC50: > 1000 nM
[18]
  EC50: > 1000 nM
[19]
  EC50: > 1000 nM
[20]
  EC50: 200 nM
[21]
  EC50: > 1000 nM
[22]
  EC50: > 1000 nM
[23]
  EC50: 200 nM
[24]
  EC50: > 1000 nM
